Test [1] concerns the target Histone-lysine N-methyltransferase EZH2 (Mus musculus) (UniProt Q61188). Briefly: Inhibition of EZH2 in mouse primary cranial mesenchyme ectoderm fibroblast assessed as increase in Sox9 mRNA level by qPCR analysis.
For test [2] the target is unchanged. Briefly: Inhibition of EZH2 in mouse primary cranial mesenchyme ectoderm fibroblast assessed as reduction in H3K27me3 protein level at 500 to 2000 nM by Western blotting analysis. The note with it: dose 500-2000 nM. In general terms: Immunoblotting shows a protein as a band on a membrane.
Test [3] has as its target Histone-lysine N-methyltransferase EZH2 (Homo sapiens, UniProt Q15910). Briefly: Inhibition of EZH2 (unknown origin).
The target of test [4] is Histone-lysine N-methyltransferase EZH2 (Mus musculus) (UniProt Q61188). Briefly: Inhibition of EZH2 in mouse primary cranial mesenchyme ectoderm fibroblast assessed as reduction in H3K27me3 protein level at 150 to 2000 nM by Western blotting analysis. The note with it: dose 150-2000 nM.
For test [5], the target named is T1, Histone-lysine N-methyltransferase EZH1 (Homo sapiens, UniProt Q92800).
T1 sequence (Q92800 whole entry): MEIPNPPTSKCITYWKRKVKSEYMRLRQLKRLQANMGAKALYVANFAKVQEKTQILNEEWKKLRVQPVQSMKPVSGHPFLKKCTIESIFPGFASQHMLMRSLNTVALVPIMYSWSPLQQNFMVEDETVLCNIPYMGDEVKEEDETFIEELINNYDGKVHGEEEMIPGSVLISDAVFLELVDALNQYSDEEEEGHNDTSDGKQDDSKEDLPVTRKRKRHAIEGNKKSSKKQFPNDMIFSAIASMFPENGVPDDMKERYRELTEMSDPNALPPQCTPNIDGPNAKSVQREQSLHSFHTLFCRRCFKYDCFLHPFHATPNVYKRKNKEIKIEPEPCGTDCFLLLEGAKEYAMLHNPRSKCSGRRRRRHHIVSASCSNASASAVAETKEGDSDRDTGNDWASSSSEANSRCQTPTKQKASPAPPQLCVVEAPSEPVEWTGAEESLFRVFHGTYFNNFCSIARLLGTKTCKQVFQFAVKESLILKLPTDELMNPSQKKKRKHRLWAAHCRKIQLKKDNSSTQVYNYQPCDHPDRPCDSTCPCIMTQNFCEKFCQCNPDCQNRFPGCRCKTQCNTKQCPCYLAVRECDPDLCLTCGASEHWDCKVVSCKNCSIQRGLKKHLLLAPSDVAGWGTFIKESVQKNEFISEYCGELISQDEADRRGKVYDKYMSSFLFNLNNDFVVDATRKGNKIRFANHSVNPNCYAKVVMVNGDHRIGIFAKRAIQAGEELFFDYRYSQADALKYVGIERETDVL
The test can be described thus: Inhibition of EZH1 (unknown origin).

Calls of active or inactive are those of the source. The calls are words filed in the database; no cut-off is given here. Bounds are passed on as bounds.

Chain of Histone-lysine N-methyltransferase EZH2 (Mus musculus) (Q61188 whole entry): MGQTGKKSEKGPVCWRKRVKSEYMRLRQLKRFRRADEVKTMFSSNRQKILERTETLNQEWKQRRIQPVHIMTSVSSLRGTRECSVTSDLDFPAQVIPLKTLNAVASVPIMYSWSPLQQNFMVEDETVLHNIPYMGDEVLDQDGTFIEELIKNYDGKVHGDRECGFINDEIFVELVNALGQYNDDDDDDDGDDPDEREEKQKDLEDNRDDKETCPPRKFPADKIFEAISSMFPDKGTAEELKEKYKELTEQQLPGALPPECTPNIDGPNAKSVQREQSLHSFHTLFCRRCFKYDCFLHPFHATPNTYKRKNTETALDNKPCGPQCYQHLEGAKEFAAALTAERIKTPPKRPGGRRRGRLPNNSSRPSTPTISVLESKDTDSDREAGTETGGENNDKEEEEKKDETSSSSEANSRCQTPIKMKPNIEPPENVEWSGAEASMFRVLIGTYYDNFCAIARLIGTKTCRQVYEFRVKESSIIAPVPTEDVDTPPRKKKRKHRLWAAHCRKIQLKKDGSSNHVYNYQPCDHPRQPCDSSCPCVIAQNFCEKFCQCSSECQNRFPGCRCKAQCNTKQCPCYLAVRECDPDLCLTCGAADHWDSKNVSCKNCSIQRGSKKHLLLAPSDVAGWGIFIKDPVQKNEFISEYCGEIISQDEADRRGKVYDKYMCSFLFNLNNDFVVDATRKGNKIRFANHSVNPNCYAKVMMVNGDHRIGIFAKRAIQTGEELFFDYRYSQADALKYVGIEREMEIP
Chain of Histone-lysine N-methyltransferase EZH2 (Q15910 whole entry): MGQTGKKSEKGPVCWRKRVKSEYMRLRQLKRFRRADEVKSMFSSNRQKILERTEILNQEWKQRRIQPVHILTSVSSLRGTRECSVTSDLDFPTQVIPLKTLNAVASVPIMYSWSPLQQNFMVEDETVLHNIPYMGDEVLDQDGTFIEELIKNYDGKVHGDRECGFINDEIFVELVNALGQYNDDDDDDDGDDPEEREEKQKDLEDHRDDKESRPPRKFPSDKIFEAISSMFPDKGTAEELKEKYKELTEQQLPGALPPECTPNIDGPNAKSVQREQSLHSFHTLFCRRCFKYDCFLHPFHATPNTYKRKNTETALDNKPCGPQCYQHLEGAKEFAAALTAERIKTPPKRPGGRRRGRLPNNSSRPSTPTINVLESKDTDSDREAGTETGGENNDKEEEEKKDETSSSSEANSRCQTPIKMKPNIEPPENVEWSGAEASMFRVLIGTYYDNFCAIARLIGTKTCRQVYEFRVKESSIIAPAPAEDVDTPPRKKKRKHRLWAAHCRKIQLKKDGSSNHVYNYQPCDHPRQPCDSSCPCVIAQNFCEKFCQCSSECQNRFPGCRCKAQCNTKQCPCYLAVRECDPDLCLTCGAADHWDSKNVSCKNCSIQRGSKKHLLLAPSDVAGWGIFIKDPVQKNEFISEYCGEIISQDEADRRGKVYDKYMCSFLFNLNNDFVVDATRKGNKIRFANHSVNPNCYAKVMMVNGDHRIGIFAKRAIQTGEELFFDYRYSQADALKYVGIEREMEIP

As for `CCCc1cc(C)[nH]c(=O)c1CNC(=O)c1cc(-c2ccc(N3CCN(C(C)C)CC3)nc2)cc2c1cnn2C(C)C`, the inhibition entry in test [1] was “inactive”. Also, the inhibition entry in test [2] is “Active”. Further, in test [3], the IC50 – broadly, the midpoint of a concentration-inhibition curve – was under 10 nM.
Regarding `CC[C@H](C)n1cc(C)c2c(C(=O)NCc3c(C)cc(C)[nH]c3=O)cc(-c3ccc(N4CCNCC4)nc3)cc21` [GSK2816126], the inhibition result in test [4] was “Active”. For the same compound, the inhibition result in test [1] is “inactive”. Further, half-maximal inhibition in test [5] (IC50) was put at 75 nM.

Values taken from ChEMBL document CHEMBL5712895, “PRC2 Is Dispensable in Vivo for β-Catenin-Mediated Repression of Chondrogenesis in the Mouse Embryonic Cranial Mesenchyme” (G3 (Bethesda), 2018).
